The text below walks through data of ChEMBL document CHEMBL4665653, “VU6005806/AZN-00016130, an advanced M positive allosteric modulator (PAM) profiled as a potential preclinical development candidate” (Bioorg Med Chem Lett, 2019).

A short description of series [1]: Fraction unbound in rat plasma. Type of series: ADME, cell-free.
For series [2], the target named is T1, Muscarinic acetylcholine receptor M4 (Homo sapiens, UniProt P08173).
T1 sequence (P08173 whole entry): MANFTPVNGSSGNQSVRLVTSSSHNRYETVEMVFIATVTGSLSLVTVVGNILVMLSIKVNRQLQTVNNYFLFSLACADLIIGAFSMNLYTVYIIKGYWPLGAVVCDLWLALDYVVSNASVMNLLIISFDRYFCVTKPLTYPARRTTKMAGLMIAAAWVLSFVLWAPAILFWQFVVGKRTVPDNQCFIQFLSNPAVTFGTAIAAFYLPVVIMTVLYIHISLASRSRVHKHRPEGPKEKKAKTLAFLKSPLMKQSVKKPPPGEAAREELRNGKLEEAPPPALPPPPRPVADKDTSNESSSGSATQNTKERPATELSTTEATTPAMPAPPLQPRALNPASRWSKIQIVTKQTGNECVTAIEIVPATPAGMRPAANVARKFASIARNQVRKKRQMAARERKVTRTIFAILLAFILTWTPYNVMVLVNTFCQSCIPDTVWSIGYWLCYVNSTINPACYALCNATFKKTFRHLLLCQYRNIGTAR
Briefly: Positive allosteric modulation of human M4 receptor/Gqi5 in presence of EC20 acetylcholine by calcium mobilization assay. In kind it is functional. On the technique in general: Calcium flux is commonly read through the fluorescence of an indicator in the cells.

Series [3] can be described thus: Fraction unbound in rat brain. In kind it is ADME, tissue-based.
Series [4] in a line: Fraction unbound in human plasma. Type of series: ADME, cell-free.
The target of series [5] is T2, Muscarinic acetylcholine receptor M5 (Homo sapiens) (UniProt P08912).
T2 sequence (whole entry): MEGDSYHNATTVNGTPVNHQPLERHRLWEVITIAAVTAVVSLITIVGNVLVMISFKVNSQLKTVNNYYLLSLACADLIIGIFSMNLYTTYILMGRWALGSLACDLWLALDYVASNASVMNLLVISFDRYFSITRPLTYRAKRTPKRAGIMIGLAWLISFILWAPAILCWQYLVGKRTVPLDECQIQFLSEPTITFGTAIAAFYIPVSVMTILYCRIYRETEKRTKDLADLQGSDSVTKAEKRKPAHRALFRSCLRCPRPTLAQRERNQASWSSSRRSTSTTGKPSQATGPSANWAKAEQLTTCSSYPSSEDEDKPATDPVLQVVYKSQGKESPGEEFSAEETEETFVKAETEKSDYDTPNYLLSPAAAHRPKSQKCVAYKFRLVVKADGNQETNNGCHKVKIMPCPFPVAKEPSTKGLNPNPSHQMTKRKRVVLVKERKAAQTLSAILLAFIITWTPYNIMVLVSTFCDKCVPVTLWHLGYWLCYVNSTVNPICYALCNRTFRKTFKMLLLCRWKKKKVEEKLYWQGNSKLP
Put plainly: Positive allosteric modulation of human M5 receptor.

Series [6] can be described thus: Unbound brain-to-plasma concentration ratio in Sprague-Dawley rat at 0.1 to 0.2 mg/kg, iv measured after 0.25 hrs. Type of series: ADME, organism-based. As to conditions: dose 0.1-0.2 mg/kg, read-out: K(p,uu,brain).
A short description of series [7]: Hepatic clearance in rat. Type of series: ADME. As to conditions: in vivo.
Series [8] concerns the target Muscarinic acetylcholine receptor M3 (Homo sapiens, UniProt P20309). Put plainly: Positive allosteric modulation of human M3 receptor.
The nature of series [9]: Hepatic clearance in human. In kind it is ADME.
For series [10], the target named is T3, Muscarinic acetylcholine receptor M2 (Homo sapiens, UniProt P08172).
T3 sequence (P08172 whole entry): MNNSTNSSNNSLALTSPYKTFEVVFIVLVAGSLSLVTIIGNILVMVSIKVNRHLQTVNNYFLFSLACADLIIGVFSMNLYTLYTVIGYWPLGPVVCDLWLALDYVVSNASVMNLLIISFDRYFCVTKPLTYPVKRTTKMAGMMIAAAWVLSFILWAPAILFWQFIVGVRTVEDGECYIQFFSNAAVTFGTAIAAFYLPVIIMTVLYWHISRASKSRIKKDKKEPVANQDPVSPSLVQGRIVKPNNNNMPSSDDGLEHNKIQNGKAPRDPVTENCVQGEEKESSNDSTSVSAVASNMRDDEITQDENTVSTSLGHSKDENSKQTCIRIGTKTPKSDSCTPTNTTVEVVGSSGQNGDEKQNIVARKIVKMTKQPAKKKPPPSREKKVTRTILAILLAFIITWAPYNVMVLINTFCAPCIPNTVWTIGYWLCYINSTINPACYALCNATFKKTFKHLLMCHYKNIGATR
Put plainly: Positive allosteric modulation of human M2 receptor/Gqi5 in presence of EC20 acetylcholine by calcium mobilization assay.

The nature of series [11]: Brain to plasma permeability coefficient, Kp in Sprague-Dawley rat at 0.1 to 0.2 mg/kg, iv measured after 0.25 hrs. The following applies: dose 0.1-0.2 mg/kg. In kind it is ADME, organism-based.
The target of series [12] is T4, Muscarinic acetylcholine receptor M4 (Homo sapiens) (UniProt P08173).
T4 sequence (whole entry): T1 sequence (P08173 whole entry)
Put plainly: Positive allosteric modulation of human M4 receptor/Gqi5 in presence of EC20 acetylcholine by calcium mobilization assay relative to acetylcholine. Type of series: functional. The following applies: filed as positive allosteric modulator.

Series [13] deals with T5, Muscarinic acetylcholine receptor M1 (Homo sapiens) (UniProt P11229).
T5 sequence (whole entry): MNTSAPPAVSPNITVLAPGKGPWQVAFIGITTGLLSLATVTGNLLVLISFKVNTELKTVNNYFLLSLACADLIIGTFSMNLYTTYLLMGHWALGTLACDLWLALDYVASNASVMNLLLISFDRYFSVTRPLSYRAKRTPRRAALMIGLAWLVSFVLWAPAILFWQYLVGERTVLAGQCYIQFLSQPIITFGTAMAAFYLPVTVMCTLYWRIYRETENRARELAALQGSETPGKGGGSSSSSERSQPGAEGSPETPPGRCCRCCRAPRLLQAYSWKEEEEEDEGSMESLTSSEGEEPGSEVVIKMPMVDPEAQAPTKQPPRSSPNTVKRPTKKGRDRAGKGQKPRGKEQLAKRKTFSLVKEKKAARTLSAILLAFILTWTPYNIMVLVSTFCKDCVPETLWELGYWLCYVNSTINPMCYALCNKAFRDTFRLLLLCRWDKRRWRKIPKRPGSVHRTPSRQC
Briefly: Positive allosteric modulation of human M1 receptor.

The target in series [14] is T3, Muscarinic acetylcholine receptor M2. Put plainly: Positive allosteric modulation of human M2 receptor/Gqi5 in presence of EC20 acetylcholine by calcium mobilization assay relative to acetylcholine. As to conditions: read-out: %max.
For a further series, the system named is P-gp. Put plainly: Substrate activity at human P-gp expressed in MDCK-MDR1 cells assessed as efflux ratio. Type of series: ADME, cell-based.

Activity calls are given as the source filed them. The calls are words filed in the database; no cut-off is given here.

Sequence of Muscarinic acetylcholine receptor M3 (P20309 whole entry, looked up): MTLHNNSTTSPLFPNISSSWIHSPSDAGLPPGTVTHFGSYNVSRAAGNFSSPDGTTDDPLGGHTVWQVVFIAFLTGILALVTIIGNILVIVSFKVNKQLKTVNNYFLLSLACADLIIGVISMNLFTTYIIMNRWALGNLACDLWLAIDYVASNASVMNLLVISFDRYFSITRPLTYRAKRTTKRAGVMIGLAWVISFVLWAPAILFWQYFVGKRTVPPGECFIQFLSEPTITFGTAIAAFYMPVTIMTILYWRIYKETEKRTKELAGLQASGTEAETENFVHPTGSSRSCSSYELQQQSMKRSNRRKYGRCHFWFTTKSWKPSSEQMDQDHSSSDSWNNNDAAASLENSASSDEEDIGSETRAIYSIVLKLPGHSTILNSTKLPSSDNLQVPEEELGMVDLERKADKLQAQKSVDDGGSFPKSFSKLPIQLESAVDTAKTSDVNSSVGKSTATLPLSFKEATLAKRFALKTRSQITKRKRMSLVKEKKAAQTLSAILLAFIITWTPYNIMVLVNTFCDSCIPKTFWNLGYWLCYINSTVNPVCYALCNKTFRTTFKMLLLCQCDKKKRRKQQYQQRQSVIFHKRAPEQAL

By fraction unbound is commonly meant the share of the substance not bound to proteins or other matrix. The low end stands for extensive binding, the high end for weak binding. As usually defined, the EC50 is the concentration needed to bring the measured effect to its halfway point. Broadly, the Kp is the ratio of the level in a tissue or fluid to that in plasma or blood. On to `Cc1c(Cl)nnc2sc(C(=O)NC3CN(c4cc(C(F)(F)F)ncc4Cl)C3)c(N)c12`, for which the fraction unbound came out at 0.019 in [1], 0.01 in series [3] and 0.019 in series [4]. In addition, the EC50 in [2] was 20 nM; in [10], more than 10 µM. The outcome in series [5], in [8] and in series [13] was inactive. Besides, in series [6], the Kp uu at 0.25 h stood at 0.16. Moreover, the CLH was found to be 31.7 mL/min/kg in series [7] and 14.7 mL/min/kg in [9]. In [11], this molecule had a Kp at 0.25 h of 0.31. In series [12], the %max was 90%. The Emax in series [14] turned out to be 51%.
What is called efflux ratio is the permeability from basolateral to apical divided by that in the opposite direction, in the common usage. Take `Cc1nnc2sc(C(=O)NC3CN(c4ncc(C(F)(F)F)cn4)C3)c(N)c2c1C`: the fraction unbound in series [1] is 0.028; in [3] it was 0.41; in series [4], 0.048. In addition, the EC50 stood at 90 nM in series [2] and 1.16 µM in [10]. Besides, the result in [5], in [8] and in series [13] was inactive. Also, the Kp uu at 0.25 h in series [6] is 0.18. Further, the figures for the CLH in series [7] and in [9] were 10.6 mL/min/kg and 4.39 mL/min/kg, respectively. Also, the Kp at 0.25 h in series [11] turned out to be 0.12. Further, the %max in series [12] was 76%. Besides, the Emax in series [14] is 30%. Also, in the series on P-gp, the efflux ratio was 4.
On to `Cc1c(C(F)F)nnc2sc(C(=O)NC3CN(c4ncc(C(F)(F)F)cn4)C3)c(N)c12`, for which the fraction unbound in series [1] came to 0.017; in series [3] it was 0.062; in [4], 0.02. Also, the EC50 was 150 nM in [2] and more than 30 µM in series [10]. In addition, the result in series [5], in series [8] and in [13] was inactive. In addition, in [6], the Kp uu at 0.25 h stood at 0.88. Moreover, the CLH in series [7] came out at 18.8 mL/min/kg; in [9], 10.1 mL/min/kg. In series [11], this molecule had a Kp at 0.25 h of 0.29. Besides, the %max in series [12] was 49%. Also, in the series on P-gp, the efflux ratio amounted to 3.
`Cc1c(CF)nnc2sc(C(=O)NC3CN(c4ncc(C(F)(F)F)cn4)C3)c(N)c12`: the fraction unbound in series [1] is 0.034; in series [3], 0.085; in series [4], 0.042. The figures for the EC50 in series [2] and in [10] were 170 nM and more than 30 µM, respectively. In addition, the result in [5], in series [8] and in series [13] was inactive. Further, the Kp uu at 0.25 h in series [6] is 0.15. For the same molecule, the CLH in [7] came out at 23.7 mL/min/kg; in series [9], 10.8 mL/min/kg. In addition, the Kp at 0.25 h in series [11] was 0.06. For the same molecule, the %max in [12] was 73%.
`COc1cc(N2CC(NC(=O)c3sc4nnc(Cl)c(C)c4c3N)C2)c(Cl)cn1`: the fraction unbound in series [1] is 0.005; in series [3] it was 0.01; in series [4], less than 0.001. For the same molecule, the EC50 is 10 nM in [2] and more than 30 µM in [10]. The outcome in [5], in series [8] and in series [13] was inactive. In series [6], the Kp uu at 0.25 h amounted to 0.42. In addition, the CLH in series [7] turned out to be 15.3 mL/min/kg; in [9] it was 11.7 mL/min/kg. Besides, the Kp at 0.25 h in series [11] was found to be 0.21. In series [12], the %max was 52%.
